Source: patent US10981894B2, “Melanocortin subtype-2 receptor (MC2R) antagonists and uses thereof” (Crinetics Pharmaceuticals, Inc., priority 2018, dated 2021)

These molecules were tested against hMC2 receptor (Homo sapiens, UniProt Q01718) (assay: hMC2 membrane binding assay ([125I]ACTH (1-39) Tyr23, SPA)). Details: crude hMC2R membranes from CRE-bla-CHO-K1 cells expressing hMC2 receptor and hMRAP; [125I]ACTH (1-39) Tyr23 0.2 nM; 1.5 hours at room temperature; read-out: MC2R binding potency.
Design: scale not given here
Outline: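 Ki comes from non-linear regression of SPA scintillation counts. Displacement of 0.2 nM [125I]ACTH(1-39) Tyr23 by compound dose series (usually 0–10,000 nM final) ran 1.5 h at room temperature. Membranes came from CHO-K1 CRE-bla cells stably expressing hMC2R plus hMRAP, bead-coupled in pH 7.4 buffer with 0.2% BSA.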

Sequence of hMC2 receptor (Q01718 whole entry): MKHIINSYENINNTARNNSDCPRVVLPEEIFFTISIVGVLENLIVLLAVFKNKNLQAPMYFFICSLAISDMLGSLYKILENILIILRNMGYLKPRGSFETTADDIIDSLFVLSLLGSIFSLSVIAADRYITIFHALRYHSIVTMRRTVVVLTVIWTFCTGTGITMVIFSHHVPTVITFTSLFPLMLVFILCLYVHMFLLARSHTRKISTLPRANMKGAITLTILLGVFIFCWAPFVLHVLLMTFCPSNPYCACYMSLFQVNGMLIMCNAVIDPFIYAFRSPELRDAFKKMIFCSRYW
Sequence of hMC2 receptor (Q8TCY5 whole entry partner): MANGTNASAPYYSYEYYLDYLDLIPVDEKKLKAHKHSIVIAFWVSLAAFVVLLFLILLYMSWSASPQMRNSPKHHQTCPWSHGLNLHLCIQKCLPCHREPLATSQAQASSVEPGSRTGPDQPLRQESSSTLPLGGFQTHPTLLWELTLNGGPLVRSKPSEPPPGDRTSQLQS

Ki, < 10 nM:
CCOc1ccc(C(=O)N2CCN(c3ccc(-c4cccnc4OCC)nc3C(=O)NC[C@@H]3CCN3)[C@H](CC)C2)c(C(F)(F)F)n1 [Compound 1-256, N-{[(2S)-azetidin-2-yl]methyl}-2′-ethoxy-5-[(2R)-4-[6-ethoxy-2-(trifluoromethyl)pyridine-3-carbonyl]-2-ethylpiperazin-1-yl]-[2,3′-bipyridine]-6-carboxamide]
CCOc1ncccc1-c1ccc(N2CCN(C(=O)C34CCC(C(F)(F)F)(CC3)C4)C[C@H]2CC)c(C(=O)N[C@@H]2CCN(C)C2)n1 [Compound 1-385, 2′-ethoxy-5-[(2R)-2-ethyl-4-[4-(trifluoromethyl)bicyclo[2.2.1]heptane-1-carbonyl]piperazin-1-yl]-N-[(3R)-1-methylpyrrolidin-3-yl]-[2,3′-bipyridine]-6-carboxamide]
CCOc1ncccc1-c1ccc(N2CCN(C(=O)c3ccc(C)cc3N3CCC(CN)C3)C[C@H]2CC)c(C(=O)NCCN)c1 (stereo partly drawn) [Compound 1-104, N-(2-aminoethyl)-2-[(2R)-4-{2-[3-(aminomethyl)pyrrolidin-1-yl]-4-methylbenzoyl}-2-ethylpiperazin-1-yl]-5-(2-ethoxypyridin-3-yl)benzamide]
CCOc1ncccc1-c1ccc(N2CCN(C(=O)c3ccc(OC)nc3C(F)(F)F)C[C@H]2CC)c(C(=O)N[C@@H]2CNC[C@H]2F)n1 [Compound 1-289, 2′-ethoxy-5-[(2R)-2-ethyl-4-[6-methoxy-2-(trifluoromethyl)pyridine-3-carbonyl]piperazin-1-yl]-N-[(3R,4R)-4-fluoropyrrolidin-3-yl]-[2,3′-bipyridine]-6-carboxamide]
CCOc1ncccc1-c1ccc(N2CCN(C(=O)c3ccc(Cl)cc3C(F)F)C[C@H]2CC)c(C(=O)NCCN(C)C)c1F [Compound 1-184, 6-[(2R)-4-[4-chloro-2-(difluoromethyl)benzoyl]-2-ethylpiperazin-1-yl]-N-[2-(dimethylamino)ethyl]-3-(2-ethoxypyridin-3-yl)-2-fluorobenzamide]
CCOc1ccc(C(=O)N2CCN(c3ccc(-c4cccnc4OCC)nc3C(=O)N[C@@H]3CCN(C)C3)[C@H](CC)C2)c(C(F)(F)F)n1 [Compound 1-243, 2′-ethoxy-5-[(2R)-4-[6-ethoxy-2-(trifluoromethyl)pyridine-3-carbonyl]-2-ethylpiperazin-1-yl]-N-[(3R)-1-methylpyrrolidin-3-yl]-[2,3′-bipyridine]-6-carboxamide]
CCOc1ncccc1-c1ccc(N2CCN(C(=O)c3ccc(C)cc3N3CC[C@H](N(C)C)C3)C[C@H]2CC)c(C(=O)NCCN)c1 [Compound 1-68, N-(2-aminoethyl)-2-[(2R)-4-{2-[(3S)-3-(dimethylamino)pyrrolidin-1-yl]-4-methylbenzoyl}-2-ethylpiperazin-1-yl]-5-(2-ethoxypyridin-3-yl)benzamide]
CCOc1ncccc1-c1ccc(N2CCN(C(=O)c3ccc(Cl)cc3C(F)(F)F)C[C@H]2CC)c(C(=O)NC[C@H]2CCCN2)c1F [Compound 1-124, 6-[(2R)-4-[4-chloro-2-(trifluoromethyl)benzoyl]-2-ethylpiperazin-1-yl]-3-(2-ethoxypyridin-3-yl)-2-fluoro-N-{[(2R)-pyrrolidin-2-yl]methyl}benzamide]
CCOc1ncccc1-c1ccc(N2CCN(C(=O)c3ccc(OC)nc3C(F)(F)F)C[C@H]2CC)c(C(=O)NCC2CN(C)C2)n1 [Compound 1-242, 2′-ethoxy-5-[(2R)-2-ethyl-4-[6-methoxy-2-(trifluoromethyl)pyridine-3-carbonyl]piperazin-1-yl]-N-[(1-methylazetidin-3-yl)methyl]-[2,3′-bipyridine]-6-carboxamide]
CCOc1ncccc1-c1ccc(N2CCN(C(=O)c3ccc(F)cc3Cl)C[C@H]2CC)c(C(=O)NCCN)c1 [Compound 1-38, N-(2-aminoethyl)-2-[(2R)-4-(2-chloro-4-fluorobenzoyl)-2-ethylpiperazin-1-yl]-5-(2-ethoxypyridin-3-yl)benzamide]
CCOc1ncccc1-c1ccc(N2CCN(C(=O)c3ccc(F)cc3C(F)F)C[C@H]2CC)c(C(=O)N[C@@H]2CCNC2)c1F [Compound 1-189, 6-[(2R)-4-[2-(difluoromethyl)-4-fluorobenzoyl]-2-ethylpiperazin-1-yl]-3-(2-ethoxypyridin-3-yl)-2-fluoro-N-[(3R)-pyrrolidin-3-yl]benzamide]
CCOc1ccccc1-c1ccc(N2CCN(C(=O)N3CCc4cc(F)cc(C#N)c43)C[C@H]2CC)c(C(=O)NC2CN(C)C2)n1 [Compound 1-424, 3-[(2R)-4-(7-cyano-5-fluoro-2,3-dihydro-1H-indole-1-carbonyl)-2-ethylpiperazin-1-yl]-6-(2-ethoxyphenyl)-N-(1-methylazetidin-3-yl)pyridine-2-carboxamide]
CCOc1ncccc1-c1ccc(N2CCN(C(=O)c3ccc(Cl)cc3C(F)(F)F)C[C@H]2CC)c(C(=O)N[C@@H]2CCN(C)C2)n1 [Compound 1-152, 5-[(2R)-4-[4-chloro-2-(trifluoromethyl)benzoyl]-2-ethylpiperazin-1-yl]-2′-ethoxy-N-[(3R)-1-methylpyrrolidin-3-yl]-[2,3′-bipyridine]-6-carboxamide]
CCOc1ncccc1-c1ccc(N2CCN(C(=O)C3(C(F)(F)F)CCCC3)C[C@H]2CC)c(C(=O)NCCN2CCC2)n1 [Compound 1-337, N-[2-(azetidin-1-yl)ethyl]-2′-ethoxy-5-[(2R)-2-ethyl-4-[1-(trifluoromethyl)cyclopentanecarbonyl]piperazin-1-yl]-[2,3′-bipyridine]-6-carboxamide]
CCOc1ccccc1-c1ccc(N2CCN(C(=O)c3ccc(C(F)(F)F)cc3Cl)C[C@H]2CC)c(C(=O)NCCN)c1 [Compound 1-3, N-(2-aminoethyl)-4-[(2R)-4-[2-chloro-4-(trifluoromethyl)benzoyl]-2-ethylpiperazin-1-yl]-2′-ethoxy-[1,1′-biphenyl]-3-carboxamide]
CCOc1ncccc1-c1ccc(N2CCN(C(=O)N3CCc4cccc(C#N)c43)C[C@H]2CC)c(C(=O)NC2CN(C)C2)n1 [Compound 1-409, 5-[(2R)-4-(7-cyano-2,3-dihydro-1H-indole-1-carbonyl)-2-ethylpiperazin-1-yl]-2′-ethoxy-N-(1-methylazetidin-3-yl)-[2,3′-bipyridine]-6-carboxamide]
CCOc1ccccc1-c1ccc(N2CCN(C(=O)N3CCC[C@@H]3C(C)(C)C)C[C@H]2CC)c(C(=O)N[C@@H]2CCNC2)n1 [Compound 1-356, 3-[(2R)-4-[(2R)-2-tert-butylpyrrolidine-1-carbonyl]-2-ethylpiperazin-1-yl]-6-(2-ethoxyphenyl)-N-[(3R)-pyrrolidin-3-yl]pyridine-2-carboxamide]
CCOc1ncccc1-c1ccc(N2CCN(C(=O)c3ccc(OC)cc3C(F)(F)F)C[C@H]2CC)c(C(=O)NCCN(C)C)c1F [Compound 1-168, N-[2-(dimethylamino)ethyl]-3-(2-ethoxypyridin-3-yl)-6-[(2R)-2-ethyl-4-[4-methoxy-2-(trifluoromethyl)benzoyl]piperazin-1-yl]-2-fluorobenzamide]
